Assay results published in paper PMC10384572, “Marine Meroterpenoids Isolated from Gongolaria abies-marina Induce Programmed Cell Death in Naegleria fowleri” (Pharmaceuticals, 2023).

Key:
Type in all cases: cell-based, Naegleria fowleri
[1] = tested on: N. fowleri ATCC® 30808 trophozoites; experiment: ROS production (CellROX Deep Red); conditions: IC90 of compound, 24 h
Procedure: The evaluation of the programmed cell death induction by the meroterpenoids was performed in the ATCC® 30808™ N. fowleri trophozoites. Cells were incubated over 24 h with the IC90 (Table 1) of the compounds at 37 °C. In these experiments, the presence of different metabolic events which are characteristics of the programmed cell death process were evaluated. For this, five different apoptosis events marker kits (the Hoechst 33342/Propidium Iodide, SYTOX™ Green kit, CellROX® Deep Reagent, JC-1 Mitochondrial Membrane Potential Detection Kit, and the Celltiter-Glo® Luminescent Cell Viability Assay) were used according to manufacturer’s instructions. Furthermore, the percentage of stained cells was determined after incubating the treated and non-treated cells with the stains. The determination of ROS generation was carried out using the CellROX Deep Red fluorescent assay (Thermo Fisher Scientific) following manufacturer’s instructions. Briefly, N. fowleri’s trophozoites were incubated with compounds over 24 h at 37 °C. After that, the CellROX stain was added and incubated with the cells for 30 min in the dark. […] In the PCD assays, the number of stained and unstained cells was measured after the performance of the experiments. Regarding the JC-1 Mitochondrial Membrane Potential assays, the ratio between the emitted red fluorescence (at 595 nm) and green fluorescence (at 535 nm) was determined. For each kit, images (×40) with at least 80 cells were selected and analyzed. […] The graphs illustrate the mean value ± SD of three different tests. Finally, a one-way analysis of variance (ANOVA) was assessed to determine the statistical differences between the treated cells and the negative control amoebae, ** p < 0.01; *** p < 0.001; **** p < 0.0001 significant differences.

[2] = tested on: N. fowleri ATCC® 30808 trophozoites; experiment: ATP production (Celltiter-Glo Luminescent Cell Viability Assay); conditions: IC90 of compound, 24 h, 2 × 10^5 cells/mL
Procedure: The evaluation of the programmed cell death induction by the meroterpenoids was performed in the ATCC® 30808™ N. fowleri trophozoites. Cells were incubated over 24 h with the IC90 (Table 1) of the compounds at 37 °C. In these experiments, the presence of different metabolic events which are characteristics of the programmed cell death process were evaluated. For this, five different apoptosis events marker kits (the Hoechst 33342/Propidium Iodide, SYTOX™ Green kit, CellROX® Deep Reagent, JC-1 Mitochondrial Membrane Potential Detection Kit, and the Celltiter-Glo® Luminescent Cell Viability Assay) were used according to manufacturer’s instructions. Furthermore, the percentage of stained cells was determined after incubating the treated and non-treated cells with the stains. On the other hand, the measurement of the ATP production was also assessed in order to confirm the mitochondrial damage in the amoebae. For this, the Celltiter-Glo® Luminescent Cell Viability Assay (Promega Biotech Ibérica, Madrid, Spain) was used. The emitted luminescence, which is proportional to the ATP levels, was measured in an EnSpire® Multimode Plate Reader (Perkin Elmer, Madrid, Spain). Experiments were performed in triplicate. In both treated and untreated cells, the ATP production of a concentration of 2 × 10^5 cells/mL was measured.

[3] = tested on: N. fowleri ATCC® 30808 trophozoites; experiment: Mitochondrial membrane potential (JC-1); conditions: IC90 of compound, 24 h
Procedure: The evaluation of the programmed cell death induction by the meroterpenoids was performed in the ATCC® 30808™ N. fowleri trophozoites. Cells were incubated over 24 h with the IC90 (Table 1) of the compounds at 37 °C. In these experiments, the presence of different metabolic events which are characteristics of the programmed cell death process were evaluated. For this, five different apoptosis events marker kits (the Hoechst 33342/Propidium Iodide, SYTOX™ Green kit, CellROX® Deep Reagent, JC-1 Mitochondrial Membrane Potential Detection Kit, and the Celltiter-Glo® Luminescent Cell Viability Assay) were used according to manufacturer’s instructions. Furthermore, the percentage of stained cells was determined after incubating the treated and non-treated cells with the stains. The mitochondrial damage was evaluated using two different reagents. Firstly, the JC-1 Mitochondrial Membrane Potential Detection Kit (Cayman Chemicals Vitro SA, Madrid, Spain) was used to assess the failure of the mitochondrial membrane potential. Cells were incubated with the compounds at 37 °C to finally add the JC-1 reagent after 24 h. The JC-1 dye is presented in the mitochondria of untreated cells in aggregate form and emits red fluorescence. However, when the membrane potential decreases (unhealthy cells) the dye is presented in monomers, emitting green fluorescence. Images were obtained with an EVOS™ M5000 Imaging System (Invitrogen by Thermo Fisher Scientific). In the PCD assays, the number of stained and unstained cells was measured after the performance of the experiments. Regarding the JC-1 Mitochondrial Membrane Potential assays, the ratio between the emitted red fluorescence (at 595 nm) and green fluorescence (at 535 nm) was determined. For each kit, images (×40) with at least 80 cells were selected and analyzed. […] The graphs illustrate the mean value ± SD of three different tests. Finally, a one-way analysis of variance (ANOVA) was assessed to determine the statistical differences between the treated cells and the negative control amoebae, ** p < 0.01; *** p < 0.001; **** p < 0.0001 significant differences.

[4] = tested on: N. fowleri ATCC® 30808 trophozoites; experiment: Chromatin condensation detection (Hoechst 33342/propidium iodide); conditions: IC90 of compound, 24 h
Procedure: The evaluation of the programmed cell death induction by the meroterpenoids was performed in the ATCC® 30808™ N. fowleri trophozoites. Cells were incubated over 24 h with the IC90 (Table 1) of the compounds at 37 °C. In these experiments, the presence of different metabolic events which are characteristics of the programmed cell death process were evaluated. For this, five different apoptosis events marker kits (the Hoechst 33342/Propidium Iodide, SYTOX™ Green kit, CellROX® Deep Reagent, JC-1 Mitochondrial Membrane Potential Detection Kit, and the Celltiter-Glo® Luminescent Cell Viability Assay) were used according to manufacturer’s instructions. Furthermore, the percentage of stained cells was determined after incubating the treated and non-treated cells with the stains. For the chromatin condensation assay, the Hoechst 33342 and the PI (Life Technologies, Madrid, Spain) were used. The images were captured in the EVOS™ M5000 Imaging System (Invitrogen by Thermo Fisher Scientific). A concentration of 5 × 10^5 cell/mL was seeded and incubated with compounds over 24 h. Three different cell population can be distinguished with this kit. Firstly, healthy cells will barely show blue fluorescence whereas in the presence of condensed chromatin an intense blue fluorescence corresponding to the Hoechst 33342 stain will be observable. Finally, dead cells will show red fluorescence due to the linkage between the nucleus and the PI. In the PCD assays, the number of stained and unstained cells was measured after the performance of the experiments. Regarding the JC-1 Mitochondrial Membrane Potential assays, the ratio between the emitted red fluorescence (at 595 nm) and green fluorescence (at 535 nm) was determined. For each kit, images (×40) with at least 80 cells were selected and analyzed. […] The graphs illustrate the mean value ± SD of three different tests. Finally, a one-way analysis of variance (ANOVA) was assessed to determine the statistical differences between the treated cells and the negative control amoebae, ** p < 0.01; *** p < 0.001; **** p < 0.0001 significant differences.

Row | SMILES | ROS production versus negative control (CellROX deep red) [1] | Decrease of ATP production compared to untreated cells [2] | Mitochondrial membrane potential (JC-1) [3] | Apoptotic phase suggested by Hoechst/PI staining [4] | Chromatin condensation (Hoechst 33342 stain) [4] | Propidium iodide (PI) red fluorescence [4]
1 | COc1c(C)cc(O)cc1C/C=C(\C)CC(=O)/C=C(\C)CCC[C@@H](C)C(=O)/C=C/C(C)(C)O [1′Methoxyamentadione (3), 1′-methoxyamentadione] | increased the level of ROS production | 82.62% | mitochondrial membrane potential disruption | early apoptotic phase | induced DNA condensation | no red fluorescence
2 | COc1c(C)cc(O)cc1C/C=C(\C)CC(=O)/C=C(/C)CCC[C@@H](C)C(=O)/C=C/C(C)(C)O [6Z-1′Methoxyamentadione (2), 6Z-1′-methoxyamentadione] | increased the level of ROS production | 92.49% | mitochondrial membrane potential disruption | late apoptotic phase | induced DNA condensation | showed red fluorescence
3 | COc1c(C)cc(O)cc1C/C=C(\C)CC(=O)/C=C(\C)CCCC(C)=O [Cystomexicone B (6), cystomexicone B] | increased the level of ROS production | 65.59% | mitochondrial membrane potential disruption | early apoptotic phase | induced DNA condensation | no red fluorescence
4 | COc1c(C)cc(O)cc1C/C=C(\C)CC(=O)C/C(C)=C/CC[C@@H](C)C(=O)/C=C/C(C)(C)O [Gongolarone B (1), gongolarone B] | increased the level of ROS production | 85.75% | mitochondrial membrane potential disruption | late apoptotic phase | induced DNA condensation | showed red fluorescence
